{
  "source": "patent US6077519A",
  "about": "“Methods for isolation and use of T cell epitopes eluted from viable cells in vaccines for treating cancer patients” (University of Pittsburgh, priority 1997, dated 2000)",
  "key": {"HLA-A2 [1]": {"biological_target": "T1, HLA-A2 (Homo sapiens, UniProt P04439)", "T1 construct": "peptide stabilization read with MA2.1 by flow cytometry", "T1 sequence (P04439 25-365)": "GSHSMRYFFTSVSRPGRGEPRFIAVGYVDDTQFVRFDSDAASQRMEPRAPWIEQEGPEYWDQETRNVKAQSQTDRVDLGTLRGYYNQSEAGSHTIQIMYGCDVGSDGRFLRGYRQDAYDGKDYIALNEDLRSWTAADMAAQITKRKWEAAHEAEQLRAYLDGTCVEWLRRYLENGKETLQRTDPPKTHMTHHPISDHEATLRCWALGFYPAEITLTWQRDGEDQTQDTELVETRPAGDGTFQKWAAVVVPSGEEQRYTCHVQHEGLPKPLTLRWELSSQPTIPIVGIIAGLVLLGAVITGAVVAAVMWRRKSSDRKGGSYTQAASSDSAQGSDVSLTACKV", "T1 sequence (P61769 21-119 partner)": "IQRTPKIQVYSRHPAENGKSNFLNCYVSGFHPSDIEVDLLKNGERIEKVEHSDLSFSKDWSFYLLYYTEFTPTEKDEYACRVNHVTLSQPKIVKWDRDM", "assay": "HLA-A2 stabilization assay on T2 cells", "assay_type": "binding", "details": "MA2.1"}, "Mel 624 [2]": {"system": "Mel 624", "assay": "induction of anti-melanoma CTL from normal donor PBMC by peptide-pulsed autologous DC, lysis of Mel 624", "assay_type": "cell-based, human", "details": "for Normal PBL Response (responders/donors): lysis of Mel 624 >20% at E:T 10:1, >80% inhibited by BB7.2; for Peak week of CTL reactivity, Normal PBL / number of stimulations to induce anti-melanoma CTL: normal donors; for lysis of Mel 624 by induced anti-melanoma CTL: E:T 10:1, normal donors", "description": "Peripheral blood mononuclear cells (\"PBMC\") were obtained after density centrifugation on Ficoll-Hypaque gradients per the manufacturer's protocol (LSM, Organon-Teknika, Durham, N.C.). […] Non-adherent cells were frozen in liquid nitrogen in 90% fetal bovine serum/10% DMSO and were retained as T cell enriched responder populations. Plastic adherent cells were cultured for 5-7 days in AIM-V medium supplemented with 1000 U rIL-4/ml+1000 U rGM-CSF/ml at 37° C., 5% CO2 and served as the source of autologous dendritic cells. No medium was added or removed during this culture period. […] Gradient interface cells were harvested, washed with HBSS, and used in phenotypic and functional assays, as outlined below. Cells generated in this way were determined to be greater than 90% DC based on morphology and the expression of a CD1a+, CD1b+, CD1c+, CD3-, CD14-, CD16-, CD20-, CD40+, CD80+, CD83+, CD86+, MHC class II+phenotype assessed by flow cytometry.\n(§1) Plastic non-adherent DC (1-2×10^6) were harvested from IL-4+GM-CSF cultures on days 7, 14, 21, and 28, and washed twice with HBSS. […] Peptide-pulsing (10 μM final peptide concentration) was allowed to proceed for 2 hours at 37° C., at which time, the cells were washed twice with HBSS, resuspended in 1 ml of AIM-V and irradiated (2500 rad) using a cesium source. Day 7 peptide-pulsed DC were used to \"prime\" freshly-thawed, autologous PBMC (plastic adherent depleted) responders at a 20:1 responder-to-stimulator ratio. Responding T cells were restimulated weekly (for 4 weeks) using irradiated, peptide-pulsed autologous DC at a 20:1 responder-to-restimulator ratio in AIM-V medium containing 60 IU/ml rhIL-2 (Chiron, Emeryville, Calif.).\n(§2) Four hour chromium release assays were performed as described previously. Target cells were labeled with 100 μCi (Na2^51 CrO4, Dupont-New England Nuclear, Bedford, Mass.) at 37° C. for 1-2 hours prior to being washed three times with HBSS. 10^4 51 Cr-labeled cells were added to each target well±effector cells for 4 h, 37° C., 5% CO2 in a total volume of 200 μl.\nPBMC responder T cells derived from normal donors (n=12) were repetitively stimulated weekly for 1-4 weeks with irradiated, autologous cultured dendritic cells pre-pulsed with either no peptide or individually pulsed with the previously identified, HLA-A2-presented melanoma peptides listed in Table 9, below.\nAutologous, cultured d7 IL-4+GM-CSF PB-DC were pulsed with the indicated peptides for 2h at room temperature prior to washing and use as stimulators for CTL induction in vitro. […] 12 HLA-A2+ normal donors and 10 HLA-A2+ patients with metastatic melanoma were screened. […] Peak week of CTL reactivity is noted in parentheses."}, "Mel 624 [3]": {"system": "Mel 624", "assay": "induction of anti-melanoma CTL from melanoma patient PBMC by peptide-pulsed autologous DC, lysis of Mel 624", "assay_type": "cell-based, human", "details": "for Patient PBL Response (responders/patients): lysis of Mel 624 >20% at E:T 10:1, >80% inhibited by BB7.2", "excerpt": "Heparinized peripheral blood was obtained by venipuncture from 15 HLA-A2^+ normal donors and 10 HLA-A2^+ donors with AJCC Stage III or IV melanoma treated at the University of Pittsburgh Cancer Institute/University of Pittsburgh School of Medicine. Peripheral blood mononuclear cells (\"PBMC\") were obtained after density centrifugation on Ficoll-Hypaque gradients per the manufacturer's protocol (LSM, Organon-Teknika, Durham, N.C.). […] Non-adherent cells were frozen in liquid nitrogen in 90% fetal bovine serum/10% DMSO and were retained as T cell enriched responder populations. Plastic adherent cells were cultured for 5-7 days in AIM-V medium supplemented with 1000 U rIL-4/ml+1000 U rGM-CSF/ml at 37° C., 5% CO2 and served as the source of autologous dendritic cells. No medium was added or removed during this culture period. […] Gradient interface cells were harvested, washed with HBSS, and used in phenotypic and functional assays, as outlined below. Cells generated in this way were determined to be greater than 90% DC based on morphology and the expression of a CD1a+, CD1b+, CD1c+, CD3-, CD14-, CD16-, CD20-, CD40+, CD80+, CD83+, CD86+, MHC class II+phenotype assessed by flow cytometry.\nas §1, §2\nAutologous, cultured d7 IL-4+GM-CSF PB-DC were pulsed with the indicated peptides for 2h at room temperature prior to washing and use as stimulators for CTL induction in vitro. […] 12 HLA-A2+ normal donors and 10 HLA-A2+ patients with metastatic melanoma were screened.\nIn parallel experiments, PBMC derived from 10 patients diagnosed with AJCC stage III or IV melanoma were stimulated with autologous DC pulsed with these same series of peptides."}, "CTL clone A42": {"system": "CTL clone A42", "details": "CTL clone A42, data not shown"}, "TIL 5403": {"system": "TIL 5403", "details": "TIL 5403, data not shown"}, "TIL 1235": {"system": "TIL 1235", "details": "TIL 1235, data not shown"}, "A42-clone": {"system": "A42-clone", "details": "read-out: half-maximal sensitization for lysis, T2, E:T 10:1", "description": "(§3) Peptide loading was facilitated by the presence of the β2 -m and MA2.1 reagents as described by Zeh, H. J., et al., Hum. […] The cells were then incubated for 2 hours at room temperature."}, "T2 target cells": {"system": "T2 target cells", "assay": "CTL lysis of p939-pulsed T2 target cells", "assay_type": "cell-based, human", "details": "without exogenous β2 -m and MA2.1", "description": "as §3"}, "GL1 CTL": {"system": "GL1 CTL", "assay_type": "cell-based, human"}, "HLA-A2 [4]": {"biological_target": "T1, HLA-A2", "details": "reported by Cox et al.; cited from earlier work"}, "MCA205 fibrosarcoma": {"system": "MCA205 fibrosarcoma", "assay": "in vivo therapy of established MCA205 tumors in C57BL/6 mice", "set-up": "species or system mouse", "details": "day 4 (but not day 8) tumor models", "description": "Before being used in vaccines, DC were pulsed overnight with crude, unfractionated, acid-eluted peptides derived from relevant tumors or control syngeneic spleens. Peptide-pulsed DC were extensively washed and then irradiated (3,000 rads) before i.v. injection in the tail vein of tumor-bearing animals. In the fibrocarcinoma MCA205 and mammary adenocarcinoma TS/A tumor models, animals were injected three to four times, starting at day 4 or day 8 after tumor establishment and subsequently, every 4 days, with 3-5×10^5 DC pulsed with peptides. Alternatively, in the C3 tumor model, animals were injected on days 14, 21, and 28 after initial intradermal (i.d.) tumor inoculation.\n1 million BM-DC were pulsed with peptides derived from 10^8 to 10^9 cells (tumor or spleen) in a total volume of 1-2 ml of DC media overnight at 37° C., 55 CO2. Splenocytes freshly harvested from B6 animals were used as a cellular source of irrelevant peptides.\nTwice the minimal tumorigenic dose of tumor cells (2×10^5 MCA205, 10^5 TS/A, or 2×10^6 C3) were injected intradermally (\"i.d.\") in the right flank of mice. […] The mean tumor size was monitored biweekly. […]\n50 μg of CTLA4-IgG1 was admixed with DC-MCA205 or DC-TS/A in vitro, and the mixture was then administered in the tail vein of tumor-bearing animals (three to four injections every 4 days). […] Depletion of CD4^+ and CD8^+ T cells was monitored by flow cytometry. […]"}},
  "note": "“Also recorded” adds a separate entry of the source. Ends that are not written are not given here.",
  "data": [
    {"molecule": "Asp-Gly-Leu-Ala-Pro-Pro-Gln-His-Leu-Ile-Arg (DGLAPPQHLIR) [p53 186-196]", "values": [
      {"measurement": "HLA-A2 stabilization / binding", "setting": "HLA-A2 [1]", "result": "stabilized HLA-A2 very poorly"}
    ]},
    {"molecule": "FLWGPRALV [MAGE-3]", "values": [
      {"measurement": "Normal PBL Response (responders/donors)", "setting": "Mel 624 [2]", "result": "0/4"},
      {"measurement": "Patient PBL Response (responders/patients)", "setting": "Mel 624 [3]", "result": "1/3"},
      {"measurement": "Peak week of CTL reactivity, Patient PBL", "setting": "Mel 624 [3]; melanoma patients", "result": 3, "unit": "wk"}
    ]},
    {"molecule": "ILTVILGVL [p939]", "values": [
      {"measurement": "Normal PBL Response (responders/donors)", "setting": "Mel 624 [2]", "result": "9/12"},
      {"measurement": "Peak week of CTL reactivity, Normal PBL", "setting": "Mel 624 [2]", "result": "3-4 wk"},
      {"measurement": "lowest dose with peptide-specific release of interferon-γ", "setting": "CTL clone A42", "result": 1, "unit": "pM"},
      {"measurement": "recognition and lysis of peptide-pulsed T2 cells", "setting": "TIL 5403", "result": "able to recognize and lyse T2 cells"},
      {"measurement": "Patient PBL Response (responders/patients)", "setting": "Mel 624 [3]", "result": "9/10"},
      {"measurement": "Peak week of CTL reactivity, Patient PBL", "setting": "Mel 624 [3]; melanoma patients", "result": "3-4 wk"},
      {"measurement": "lowest dose with peptide-specific release of interferon-γ", "setting": "TIL 1235", "result": 1, "unit": "pM"},
      {"measurement": "EC50", "setting": "A42-clone", "result": "~3", "unit": "nM"},
      {"measurement": "HLA-A2 stabilization / binding", "setting": "HLA-A2 [1]", "result": "less effective; also recorded: low affinity"},
      {"measurement": "CTL reactivity over background", "setting": "T2 target cells", "result": "5-10%"}
    ]},
    {"molecule": "LLDGTATLRL [gp100 457-466]", "values": [
      {"measurement": "Normal PBL Response (responders/donors)", "setting": "Mel 624 [2]", "result": "0/12"},
      {"measurement": "Patient PBL Response (responders/patients)", "setting": "Mel 624 [3]", "result": "0/10"}
    ]},
    {"molecule": "Lys-Gly-Ile-Leu-Gly-Phe-Val-Phe--Thr-Leu-Thr-Val [Flu M1]", "values": [
      {"measurement": "GL1 lysis of peptide-pulsed HLA-A2+ targets", "setting": "GL1 CTL", "result": "lysed"}
    ]},
    {"molecule": "MLLAVLYCL [Tyrosinase 1-9]", "values": [
      {"measurement": "Normal PBL Response (responders/donors)", "setting": "Mel 624 [2]", "result": "1/12"},
      {"measurement": "Patient PBL Response (responders/patients)", "setting": "Mel 624 [3]", "result": "0/10"}
    ]},
    {"molecule": "Tyr-Leu-Glu-Pro-Gly-Pro-Val-Thr-Ala [gp100 280-288]", "values": [
      {"measurement": "binding to HLA-A2", "setting": "HLA-A2 [4]", "result": "intermediate-to-low affinity"},
      {"measurement": "lysis of Mel 624 by induced anti-melanoma CTL", "setting": "Mel 624 [2]", "result": "greater than 20%"},
      {"measurement": "Normal PBL Response (responders/donors)", "setting": "Mel 624 [2]", "result": "9/12"},
      {"measurement": "Peak week of CTL reactivity, Normal PBL", "setting": "Mel 624 [2]", "result": "3-4 wk"},
      {"measurement": "number of stimulations to induce anti-melanoma CTL", "setting": "Mel 624 [2]", "result": "2-3 stimulations"},
      {"measurement": "Patient PBL Response (responders/patients)", "setting": "Mel 624 [3]", "result": "8/10"},
      {"measurement": "Peak week of CTL reactivity, Patient PBL", "setting": "Mel 624 [3]; melanoma patients", "result": "3-4 wk"},
      {"measurement": "immunodominance by kinetics and magnitude of response", "setting": "Mel 624 [3]; melanoma patients", "result": "immunodominant epitopes"},
      {"measurement": "HLA-A2 stabilization / binding", "setting": "HLA-A2 [1]", "result": "comparable"}
    ]},
    {"molecule": "YMDGTMSQV [Tyrosinase 368-376]", "values": [
      {"measurement": "lysis of Mel 624 by induced anti-melanoma CTL", "setting": "Mel 624 [2]", "result": "greater than 20%"},
      {"measurement": "Normal PBL Response (responders/donors)", "setting": "Mel 624 [2]", "result": "7/12"},
      {"measurement": "Peak week of CTL reactivity, Normal PBL", "setting": "Mel 624 [2]", "result": "3-4 wk"},
      {"measurement": "number of stimulations to induce anti-melanoma CTL", "setting": "Mel 624 [2]", "result": "2-3 stimulations"},
      {"measurement": "Patient PBL Response (responders/patients)", "setting": "Mel 624 [3]", "result": "6/10"}
    ]},
    {"molecule": "recombinant murine interleukin 12 (protein, UniProt P43431 23-215; P43432 23-335, looked up) Interleukin-12 subunit alpha: RVIPVSGPARCLSQSRNLLKTTDDMVKTAREKLKHYSCTAEDIDHEDITRDQTSTLKTCLPLELHKNESCLATRETSSTTRGSCLPPQKTSLMMTLCLGSIYEDLKMYQTEFQAINAALQNHNHQQIILDKGMLVAIDELMQSLNHNGETLRQKPPVGEADPYRVKMKLCILLHAFSTRVVTINRVMGYLSSA Interleukin-12 subunit beta: MWELEKDVYVVEVDWTPDAPGETVNLTCDTPEEDDITWTSDQRHGVIGSGKTLTITVKEFLDAGQYTCHKGGETLSHSHLLLHKKENGIWSTEILKNFKNKTFLKCEAPNYSGRFTCSWLVQRNMDLKFNIKSSSSSPDSRAVTCGMASLSAEKVTLDQRDYEKYSVSCQEDVTCPTAEETLPIELALEARQQNKYENYSTSFFIRDIIKPDPPKNLQMKPLKNSQVEVSWEYPDSWSTPHSYFSLKFFVRIQRKKEKMKETEEGCNQKGAFLVEKTSTEVQCKGGNVCVQAQDRYYNSSCSKWACVPCRVRS", "values": [
      {"measurement": "therapeutic effect alone", "setting": "MCA205 fibrosarcoma", "result": "beneficial therapeutic effect"}
    ]}
  ]
}
